Earlier results on two compounds are cited in patent publication US20250334554A1, “ANALYTICAL METHOD FOR QUANTIFYING SUCRALOSE-6-ACETATE CONTENT” (Avazyme, Inc., priority 2024, published 2025).

For one data set, the system named is humans. Conditions: 2023, Riboli et al.
The conditions of data set [1]: Schiffman et al. 2023.

Peptide text beside a SMILES is read from it.

`COC(=O)[C@H](Cc1ccccc1)NC(=O)[C@@H](N)CC(=O)O` [aspartame] (H-Asp-Phe-OMe): the IARC carcinogenicity classification entry in the data set on humans is on record as “possibly carcinogenic to humans (Group 2B)”.

Regarding `CC(=O)OC[C@H]1O[C@H](O[C@]2(CCl)O[C@H](CCl)[C@@H](O)[C@@H]2O)[C@H](O)[C@@H](O)[C@H]1Cl` [sucralose-6-acetate], in data set [1], the “consumption level at which may be genotoxic” value was 0.15 µg/day.
